One test has as its system pregnant rats. Briefly: Abortive test with pregnant rats (antigestagenic effect). It is filed as in vivo, rat. The settings on record: for Abortion Rate n aborting/n treated rats: d5-d7 p.c., autopsy d9 p.c.; for abortive effect in words: dose of 0.3 mg, pregnant rats s.c.; for factor by which more effective than RU 486 (C) in the abortive test: pregnant rats, s.c. On the procedure:
The abortifacient activity was determined to define the antigestagenic effect. The tests were carried out on female rats with a weight of approx. 200 g. […] The date on which sperm are detected was considered the 1st day of pregnancy (=dl p.c.). The animals were treated with the substance to be tested or the solvent after nidation of the blastocysts from d5 p.c. to d7 p.c. The animals were killed on d9 p.c. and the uteri were checked for implants and points of resorption. Photos were made of all uteri. Lack of implants was considered as abortions. The test substances were dissolved in a mixture of benzylbenzoate and castor oil (ratio of 1:4). The vehicle volume per individual dose amounted to 0.2 ml. Treatment was subcutaneous (s.c.).

For a further test, the system named is guinea pigs. Briefly: Abortive effect in guinea pigs. It is filed as in vivo, guinea pig. The procedure:
The abortive effect of the substances in accordance with the invention (A) and (B) was also determined using guinea pigs as test animals.
The test results gained from guinea pigs permit more reliable predictions to be made on the abortive activity of the tested compound(s) to be expected in the case of humans than is permitted by the data gained with rats.

The subject of test [1] is tyrosine amino-transferase (TAT) in RHC (Rat Hepatoma Cells). Briefly: Antiglucocorticoid activity: tyrosine amino-transferase (TAT) induction in RHC cultures. It is filed as cell-based. To be noted: for antiglucocorticoid activity as % of the activity of the standard compound RU 486 (C): TAT test in RHC, simultaneous treatment with corticoid; for EC (max): Rattus norvegicus, read-out: concentration of max. TAT activity (induction). On the procedure: To identify the antiglucocorticoid activity, the effect of the substances in accordance with the invention on the tyrosine amino-transferase was determined. The test system is based on measurement of the activity of the liver enzyme tyrosine amino-transferase (TAT) in cultures of RHC (Rat Hepatoma Cells). The enzyme catalyzes the first step in the metabolism of tyrosine and can be induced by glucocorticoids both in the liver and in hepatoma cells. The activity is easy to measure in raw extracts (Granner and Tomkins, (1970) Meth. Enzymol. 15, 633). The enzyme converts the amino group of tyrosine to 2-oxoglutaric acid. Glutaminic acid and p-hydroxy-phenylpyruvate are formed. […] Its measured absorption lies at 331 nm. […] The activity can be stimulated by a factor of 4 to 6 above basal value. Simultaneous treatment with corticoid and antiglucocorticoid leads to a decrease in the TAT activity.

In another test the target is T1, gestagen receptor (Oryctolagus cuniculus, UniProt P06186).
T1 sequence (P06186 1-930): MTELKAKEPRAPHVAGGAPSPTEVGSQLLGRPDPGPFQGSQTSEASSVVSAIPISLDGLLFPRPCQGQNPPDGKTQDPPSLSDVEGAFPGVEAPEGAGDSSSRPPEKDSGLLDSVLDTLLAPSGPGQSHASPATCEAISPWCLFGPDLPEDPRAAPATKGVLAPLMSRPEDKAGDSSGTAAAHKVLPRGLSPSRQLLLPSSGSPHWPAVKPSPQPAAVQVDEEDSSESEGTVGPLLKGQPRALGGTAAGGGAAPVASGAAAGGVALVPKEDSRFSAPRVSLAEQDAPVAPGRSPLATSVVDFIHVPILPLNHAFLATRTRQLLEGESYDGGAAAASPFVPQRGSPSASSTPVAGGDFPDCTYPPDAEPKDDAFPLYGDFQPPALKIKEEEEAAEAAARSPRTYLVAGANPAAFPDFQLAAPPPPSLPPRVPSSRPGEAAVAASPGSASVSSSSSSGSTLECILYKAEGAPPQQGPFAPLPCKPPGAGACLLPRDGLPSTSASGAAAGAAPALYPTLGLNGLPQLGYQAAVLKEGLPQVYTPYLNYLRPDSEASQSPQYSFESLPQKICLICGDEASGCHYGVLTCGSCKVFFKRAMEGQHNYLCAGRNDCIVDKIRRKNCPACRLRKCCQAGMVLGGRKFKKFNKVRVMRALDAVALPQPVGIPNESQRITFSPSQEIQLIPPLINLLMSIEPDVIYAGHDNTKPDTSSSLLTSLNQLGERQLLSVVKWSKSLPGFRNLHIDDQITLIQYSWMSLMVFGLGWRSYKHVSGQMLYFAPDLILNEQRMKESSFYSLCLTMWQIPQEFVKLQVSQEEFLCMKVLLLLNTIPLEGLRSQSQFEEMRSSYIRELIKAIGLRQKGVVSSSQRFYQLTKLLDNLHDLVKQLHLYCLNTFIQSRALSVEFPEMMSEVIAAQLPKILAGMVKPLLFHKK
As to the kind of experiment: Gestagen receptor binding test (3H-progesterone displacement, rabbit uterus cytosol). The procedure:
The affinity of the compounds in accordance with the invention to the gestagen receptor is examined with the gestagen receptor binding test. In this test the displacement of the agonist by the antagonist is measured. Cytosol from rabbit uterus homogenate which contains the receptor molecule (a protein) is used in the test. This binds progesterone with high affinity and low capacity. When these receptors are charged with ^3 H-progesterone in the presence of the unlabeled substance to be tested, the extent to which the ^3 H-progesterone is displaced from the receptor depends on the concentration and binding affinity of the compound to be tested. After separation of the receptor-bound progesterone from the non-bound progesterone, the binding can be determined as a percentage and this value plotted against the log of the molar concentration of the test substance. Characteristic dosage-dependent displacement curves are obtained and the concentration of the test substance can be determined which is required to oust the reference substance […] from the receptor.

Data on six compounds can be found in US5132299A, “11β-phenyl-4,9,15-estratrienes, their manufacture and pharmaceutical preparations containing same” (Schering Aktiengesellschaft, priority 1987, dated 1992).

`CC#C[C@]1(O)C=C[C@H]2[C@@H]3CCC4=CC(=O)CCC4=C3[C@@H](c3ccc(C(C)=O)cc3)C[C@@]21C` [A, 11β-(4-acetylphenyl)-17β-hydroxy-17α-(prop-1-inyl)-4,9,15-estratrien-3-one]: the “Abortion Rate n aborting/n treated rats” value with pregnant rats (0.3 mg/animal/day s.c.), in the test with pregnant rats (1.0 mg/animal/day s.c.) and with pregnant rats (3.0 mg/animal/day s.c.) was 4/4 throughout. In the test on pregnant rats, the “abortive effect in words” value is listed as “fully abortive”. The “factor by which more effective than RU 486 (C) in the abortive test” value in the test with pregnant rats was 10. Further, the “abortifacient effect compared with compound (D)” value in the test on guinea pigs is “strikingly higher abortifacient effect”. For the same compound, in test [1], the “antiglucocorticoid activity as % of the activity of the standard compound RU 486 (C)” value is 20-50%. The “strength in the gestagen receptor binding test compared with standard compound (C)” value at gestagen receptor is recorded as “much stronger”.

For `C#CC[C@]1(O)C=C[C@H]2[C@@H]3CCC4=CC(=O)CCC4=C3[C@@H](c3ccc(C(C)=O)cc3)C[C@@]21C` [B, 11β-(4-acetylphenyl)-17β-hydroxy-17α-(prop-2-inyl)-4,9,15-estratrien-3-one], the “Abortion Rate n aborting/n treated rats” value in the test on pregnant rats (0.3 mg/animal/day s.c.), in the test with pregnant rats (1.0 mg/animal/day s.c.) and in the test with pregnant rats (3.0 mg/animal/day s.c.) was 4/4 throughout. Also, the “abortive effect in words” value in the test with pregnant rats is recorded as “fully abortive”. The “factor by which more effective than RU 486 (C) in the abortive test” value with pregnant rats is given as 10. Besides, the “abortifacient effect compared with compound (D)” value with guinea pigs was “strikingly higher abortifacient effect”. In test [1], the “antiglucocorticoid activity as % of the activity of the standard compound RU 486 (C)” value is recorded as “less than 1%”. For the same compound, the “strength in the gestagen receptor binding test compared with standard compound (C)” value at gestagen receptor was “about the same strength”.

Take `CC#C[C@]1(O)CC[C@H]2[C@@H]3CCC4=CC(=O)CCC4=C3[C@@H](c3ccc(N(C)C)cc3)C[C@@]21C` [C, 11β-(4-dimethylaminophenyl)-17β-hydroxy-17α-(prop-1-inyl)-4,9,(10)-estradien-3-one, reference compound]: the “Abortion Rate n aborting/n treated rats” value with pregnant rats (0.3 mg/animal/day s.c.) is reported as 0/4; in the test with pregnant rats (1.0 mg/animal/day s.c.) it was 2/4; in the test with pregnant rats (3.0 mg/animal/day s.c.), 4/4.

Consider `CC#C[C@]1(O)CC[C@H]2[C@@H]3CCC4=CC(=O)CCC4=C3[C@@H](c3ccc(C(C)=O)cc3)C[C@@]21C` [D, 11β-(4-acetylphenyl)-17β-hydroxy-17α-(prop-1-inyl)-4,9-estradien-3-one, reference compound], for which the “Abortion Rate n aborting/n treated rats” value in the test on pregnant rats (0.3 mg/animal/day s.c.), in the test on pregnant rats (1.0 mg/animal/day s.c.) and in the test with pregnant rats (3.0 mg/animal/day s.c.) was 4/4 each time.

For the compound `C[C@]12CCC(=O)C=C1CC[C@@H]1[C@@H]2[C@@H](O)C[C@@]2(C)[C@H]1CC[C@]2(O)C(=O)CO` [cortisol, reference compound], the EC (max) in test [1] was 1 µM.

As to `C[C@@H]1C[C@H]2[C@@H]3CCC4=CC(=O)C=C[C@]4(C)[C@@]3(F)[C@@H](O)C[C@]2(C)[C@@]1(O)C(=O)CO` [dexamethasone, reference compound], the EC (max) in test [1] worked out at 0.1 µM.
